What was measured:
SETVI (Foxtail, Green) [1] = assay: Preemergence herbicidal evaluation; format: in vivo, Setaria viridis; conditions: rated 4-5 weeks after treatment
How it was run: (§1)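 Seeds were mixed with potting soil and planted on about one inch of soil, then sprayed with test compound in aqueous acetone at about 0.0156 to 0.500 kg per hectare. Plants grew under standard greenhouse care and were visually rated 0-9 against untreated controls 4-5 weeks post-treatment.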

[2] = test system: TRZAWR (Wheat, Winter, cv Riband); assay: Preemergence herbicidal evaluation; format: in vivo, Triticum aestivum; conditions: rated 4-5 weeks after treatment
How it was run: as §1

SETVI (Foxtail, Green) [3] = assay: Postemergence herbicidal evaluation; format: in vivo, Setaria viridis
How it was run: (§2)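 Visual 0-9 injury score (stand, vigor, malformation, size, chlorosis, appearance vs untreated) taken four to five weeks post-spray, averaged across repeat tests. Test plants about two weeks old; foliar spray of acetone/water (1:1) with 0.5% surfactant delivering ~0.0156-0.500 kg active/ha.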

CYPSE (Flatsedge) [4] = assay: Postemergence weed control under flooded paddy conditions; format: in vivo, Cyperus serotinus; conditions: postemergence weeds, 3-4 weeks after treatment
How it was run: (§3)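 Weeds 3 to 5 cm tall and rice seedlings at the 1.5 to 2.5 leaf stage were flooded, with water held 1.5 to 3 cm above the soil. Compounds in 50/50 v/v aqueous/acetone went into the flood water at about 0.0313 to 0.500 kg/ha. Visual 0-9 ratings versus control were made 3 to 4 weeks later.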

ORYSAT (Rice, Tebonnet) = assay: Postemergence herbicidal evaluation; format: in vivo, Oryza sativa, (L.) Tebonnet
How it was run: as §2

ZEAMX (Corn, Field) [5] = assay: Postemergence herbicidal evaluation; format: in vivo, Zea mays
How it was run: as §2

CYPIR (Rice Flatsedge) [6] = assay: Preemergence weed control under flooded paddy conditions; format: in vivo, Cyperus iria; conditions: rated 3-4 weeks after treatment
How it was run: (§4)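 Seeds or propagules sown in silt loam kept flooded 1.5-3 cm; compounds in 50/50 acetone/water pipetted into flood water at about 0.0313 to 0.500 kg/ha. Greenhouse; visual 0-9 rating versus untreated control 3-4 weeks after treatment.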

ECHCG (Barnyardgrass) = assay: Preemergence herbicidal evaluation; format: in vivo, Echinochloa crus-galli; conditions: rated 4-5 weeks after treatment
How it was run: as §1

[7] = test system: ECHORC (Watergrass (Calif.)); assay: Postemergence weed control under flooded paddy conditions; format: in vivo, Echinochloa oryzoides; conditions: postemergence weeds, 3-4 weeks after treatment
How it was run: as §3

CYPIR (Rice Flatsedge) [8] = assay: as above; format: in vivo, Cyperus iria; conditions: postemergence weeds, 3-4 weeks after treatment
Description: Results of herbicide evaluation are expressed on a rating scale (0-9). The scale is based upon a visual observation of plant stand, vigor, malformation, size, chlorosis and overall plant appearance as compared with a control.
Plastic containers containing weeds which are 3 to 5 cm tall and rice seedlings at the 1.5 to 2.5 leaf stage are flooded with water. The water is maintained at 1.5 to 3 cm above the soil surface for the duration of the experiment. Test compounds are applied as aqueous/ acetone mixtures 50/50 v/v directly into the flood water to provide the equivalent of about 0.0313 to 0.500 kg/ha of active ingredient. The treated containers are placed on greenhouse benches and cared for in accordance with conventional greenhouse procedures. Three to four weeks after treatment, the test is terminated and each container is examined and herbicidal effect rated according to the rating system provided in Example 37. The compounds evaluated are reported by compound number given in Example 37.

ZEAMX (Corn, Field) [9] = assay: Preemergence herbicidal evaluation; format: in vivo, Zea mays; conditions: rated 4-5 weeks after treatment
How it was run: as §1

CYPSE (Flatsedge) [10] = assay: Preemergence weed control under flooded paddy conditions; format: in vivo, Cyperus serotinus; conditions: rated 3-4 weeks after treatment
How it was run: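 Ratings on a 0-9 visual scale cover stand, vigor, malformation, size, chlorosis and overall appearance relative to a control, taken three to four weeks post-treatment. Application was into flood water over freshly sown silt loam at roughly 0.0313 to 0.500 kg/ha.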

[11] = test system: ECHORC (Watergrass (Calif.)); assay: as above; format: in vivo, Echinochloa oryzoides; conditions: rated 3-4 weeks after treatment
How it was run: as §4

Compound: C=CCN1C(=O)C(CC(=O)Nc2ccccc2)SC1=Nc1cc(-n2c(=O)cc(C(F)(F)F)n(C)c2=O)c(F)cc1Cl (stereo not drawn) [Compound 44, 3-Allyl-2-{{2-chloro-5-[3,6-dihydro-3-methyl-2,6-dioxo-4-(trifluoromethyl)-1(2H)-pyrimidinyl]-4-fluorophenyl}imino}-4-oxo-5-thiazolidineacetanilide]
- Preemergence herbicidal rating SETVI (SETVI (Foxtail, Green) [1]; rate 0.0156 kg/ha): 0.0
- Preemergence herbicidal rating SETVI (SETVI (Foxtail, Green) [1]; rate 0.0313 kg/ha): 0.0
- Preemergence herbicidal rating SETVI (SETVI (Foxtail, Green) [1]; rate 0.0625 kg/ha): 0.0
- Preemergence herbicidal rating SETVI (SETVI (Foxtail, Green) [1]; rate 0.1250 kg/ha): 0.0
- Preemergence herbicidal rating SETVI (SETVI (Foxtail, Green) [1]; rate 0.2500 kg/ha): 0.0
- Preemergence herbicidal rating SETVI (SETVI (Foxtail, Green) [1]; rate 0.5000 kg/ha): 0.0
- Preemergence herbicidal rating TRZAWR ([2]; rate 0.0156 kg/ha): 0.0
- Preemergence herbicidal rating TRZAWR ([2]; rate 0.0313 kg/ha): 0.0
- Preemergence herbicidal rating TRZAWR ([2]; rate 0.0625 kg/ha): 0.0
- Preemergence herbicidal rating TRZAWR ([2]; rate 0.1250 kg/ha): 0.0
- Preemergence herbicidal rating TRZAWR ([2]; rate 0.2500 kg/ha): 0.0
- Preemergence herbicidal rating TRZAWR ([2]; rate 0.5000 kg/ha): 0.0
- Postemergence herbicidal rating SETVI (SETVI (Foxtail, Green) [3]; Rate 0.0156 kg/ha): 0.0
- Postemergence herbicidal rating SETVI (SETVI (Foxtail, Green) [3]; Rate 0.0313 kg/ha): 0.0
- Postemergence herbicidal rating SETVI (SETVI (Foxtail, Green) [3]; Rate 0.0625 kg/ha): 2.0
- Postemergence herbicidal rating SETVI (SETVI (Foxtail, Green) [3]; Rate 0.1250 kg/ha): 2.0
- Herbicidal rating CYPSE (CYPSE (Flatsedge) [4]; rate 0.0313 kg/ha): 0.0
- Herbicidal rating CYPSE (CYPSE (Flatsedge) [4]; rate 0.0625 kg/ha): 0.0
- Herbicidal rating CYPSE (CYPSE (Flatsedge) [4]; rate 0.1250 kg/ha): 0.0
- Herbicidal rating CYPSE (CYPSE (Flatsedge) [4]; rate 0.2500 kg/ha): 0.0
- Postemergence herbicidal rating ORYSAT (ORYSAT (Rice, Tebonnet); Rate 0.0156 kg/ha): 3.0
- Postemergence herbicidal rating ORYSAT (ORYSAT (Rice, Tebonnet); Rate 0.0313 kg/ha): 4.0
- Postemergence herbicidal rating ORYSAT (ORYSAT (Rice, Tebonnet); Rate 0.0625 kg/ha): 4.0
- Postemergence herbicidal rating ORYSAT (ORYSAT (Rice, Tebonnet); Rate 0.1250 kg/ha): 4.0
- Postemergence herbicidal rating ZEAMX (ZEAMX (Corn, Field) [5]; Rate 0.0156 kg/ha): 5.0
- Postemergence herbicidal rating ZEAMX (ZEAMX (Corn, Field) [5]; Rate 0.0313 kg/ha): 5.0
- Postemergence herbicidal rating ZEAMX (ZEAMX (Corn, Field) [5]; Rate 0.0625 kg/ha): 5.0
- Postemergence herbicidal rating ZEAMX (ZEAMX (Corn, Field) [5]; Rate 0.1250 kg/ha): 5.0
- Herbicidal rating CYPIR (CYPIR (Rice Flatsedge) [6]; 0.0313 kg/ha): 5.0
- Herbicidal rating CYPIR (CYPIR (Rice Flatsedge) [6]; 0.0625 kg/ha): 6.0
- Herbicidal rating CYPIR (CYPIR (Rice Flatsedge) [6]; 0.1250 kg/ha): 6.0
- Herbicidal rating CYPIR (CYPIR (Rice Flatsedge) [6]; 0.2500 kg/ha): 9.0
- Preemergence herbicidal rating ECHCG (ECHCG (Barnyardgrass); rate 0.0156 kg/ha): 0.0
- Preemergence herbicidal rating ECHCG (ECHCG (Barnyardgrass); rate 0.0313 kg/ha): 0.0
- Preemergence herbicidal rating ECHCG (ECHCG (Barnyardgrass); rate 0.0625 kg/ha): 0.0
- Preemergence herbicidal rating ECHCG (ECHCG (Barnyardgrass); rate 0.1250 kg/ha): 0.0
- Preemergence herbicidal rating ECHCG (ECHCG (Barnyardgrass); rate 0.2500 kg/ha): 0.0
- Preemergence herbicidal rating ECHCG (ECHCG (Barnyardgrass); rate 0.5000 kg/ha): 0.0
- Herbicidal rating ECHORC ([7]; rate 0.0313 kg/ha): 6.0
- Herbicidal rating ECHORC ([7]; rate 0.0625 kg/ha): 6.0
- Herbicidal rating ECHORC ([7]; rate 0.1250 kg/ha): 7.0
- Herbicidal rating ECHORC ([7]; rate 0.2500 kg/ha): 8.0
- Herbicidal rating CYPIR (CYPIR (Rice Flatsedge) [8]; rate 0.0313 kg/ha): 5.0
- Herbicidal rating CYPIR (CYPIR (Rice Flatsedge) [8]; rate 0.0625 kg/ha): 6.0
- Herbicidal rating CYPIR (CYPIR (Rice Flatsedge) [8]; rate 0.1250 kg/ha): 6.0
- Herbicidal rating CYPIR (CYPIR (Rice Flatsedge) [8]; rate 0.2500 kg/ha): 9.0
- Preemergence herbicidal rating ZEAMX (ZEAMX (Corn, Field) [9]; rate 0.0156 kg/ha): 0.0
- Preemergence herbicidal rating ZEAMX (ZEAMX (Corn, Field) [9]; rate 0.0313 kg/ha): 0.0
- Preemergence herbicidal rating ZEAMX (ZEAMX (Corn, Field) [9]; rate 0.0625 kg/ha): 0.0
- Preemergence herbicidal rating ZEAMX (ZEAMX (Corn, Field) [9]; rate 0.1250 kg/ha): 1.0
- Preemergence herbicidal rating ZEAMX (ZEAMX (Corn, Field) [9]; rate 0.2500 kg/ha): 0.0
- Preemergence herbicidal rating ZEAMX (ZEAMX (Corn, Field) [9]; rate 0.5000 kg/ha): 0.0
- Herbicidal rating CYPSE (CYPSE (Flatsedge) [10]; 0.0313 kg/ha): 0.0
- Herbicidal rating CYPSE (CYPSE (Flatsedge) [10]; 0.0625 kg/ha): 0.0
- Herbicidal rating CYPSE (CYPSE (Flatsedge) [10]; 0.1250 kg/ha): 0.0
- Herbicidal rating CYPSE (CYPSE (Flatsedge) [10]; 0.2500 kg/ha): 0.0
- Herbicidal rating ECHORC ([11]; 0.0313 kg/ha): 6.0
- Herbicidal rating ECHORC ([11]; 0.0625 kg/ha): 6.0
- Herbicidal rating ECHORC ([11]; 0.1250 kg/ha): 7.0
- Herbicidal rating ECHORC ([11]; 0.2500 kg/ha): 8.0

From patent US20020137929A1, “1 - (3-heterocyclylphenyl) isothiourea, -isourea, -guanidine and -amidine herbicidal agents” (Intellectual Property Department, BASF Aktiengesellschaft, priority 1998, published 2002)
